Patent publication US6703198B1, “Methods of diagnosing alagille syndrome” (The University of Washington, priority 1997, dated 2004)
Where “and” joins values, the source holds several entries; their conditions need not be identical. Identical values can stand only once. Entries after “also recorded” stand apart in the source; their conditions may differ. Where no end group is shown, it is not given here.

Legend:
[1] = tested on: full-length Notch1-expressing 32D cells; test: G-CSF-induced granulocytic differentiation of full-length Notch1-expressing 32D myeloid progenitor clones in the presence of hJAGGED1 peptides; type: cell-based, mouse; details: 10 μM peptide, 20 ng/ml G-CSF, FIG. 4
Protocol: The ability of the hJAGGED1 HS-27a human stromal cell line to effect differentiation of hematopoietic progenitors was analyzed using the interleukin-3 (IL-3)-dependent myeloid cell line, 32D. The 32D cell line, which was derived from normal mouse bone marrow, is a heterogeneous cell line with individual cells having characteristics of myeloid cells at various early stages of maturation. 32D cells proliferate as undifferentiated blasts in the presence of IL-3, but differentiate into mature granulocytes when stimulated with granulocyte colony stimulating factor (G-CSF; Valtieri et al. Immunol. 138:3829-3835 (1987), which is incorporated herein by reference), thereby providing a system for analyzing factors that may affect myeloid differentiation.
The HS-27a, HS-23 and HS-5 human stromal cell lines were maintained in RPMI containing 10% FCS as described in Roecklein and Torok-Storb, supra, 1995. 32D cells were maintained in Iscove's Modified Dulbecco's Medium (IMDM) with 10% fetal bovine serum (FBS) and 10% WCM as a source of IL-3. For differentiation experiments, 32D cell lines were harvested in log phase, washed, counted, and replated at constant density (2×10^5 cells/ml, 4 ml/well) in 6-well plates in IMDM, 10% FBS, 0.5% WCM and 20 ng/ml recombinant human G-CSF from Amgen (Thousand Oaks, Calif.). Aliquots of […] were removed daily for analysis and replaced with fresh media. Viable cells were counted, and Wright stained cytospins were evaluated for granulocytic differentiation as follows. […] Criteria for granulocytic differentiation included nuclear segmentation, an increased cytoplasmic to nuclear ratio, and increased eosinophilia and granularity of the cytoplasm. […]
Three peptides corresponding to different regions of the hJAGGED1 molecule were analyzed for their effect on differentiation of Notch1-expressing 32D cells treated with G-CSF. […]
Peptide SEQ ID NO:9 (“J-A”) has the sequence […]. […] Differentiation of 32D cells in the presence of hJAGGED peptides was analyzed as described above. […]

[2] = tested on: mouse hematopoietic progenitor cells (Sca-1+ lin-); test: Number of G-CFU formed from mouse hematopoietic progenitor cells treated with G-CSF and cell culture supernatant; type: cell-based; details: for Number of CFU-G-CSF, Average: average of samples 1-4, control BHK supernatant about 60
Protocol: A soluble fragment of hJAGGED1 (SEQ ID NO:7), which contains the extracellular domain of hJAGGED1 including the signal peptide, DSL region, EGF-like repeats and cysteine-rich region, was prepared by amplifying a portion of the hJAGGED1 cDNA with PCR primers 420 (SEQ ID NO:20; […]) and 421 (SEQ ID NO:21; […]). The hJAGGED1 cDNA fragment, corresponding to residues 1 to 1010, was subcloned into expression vector pDX to generate pDX-hJg1.Ex. After transfection into BHK and COS cells, the cell culture supernatant was assayed for the ability to effect the number of G-CFU formed from mouse hematopoietic progenitor cells ([…] lin^−), which were prepared by removing cells that stained with anti-Gr-1, anti-CD4, anti-CD11b, anti-CD2, anti-CD45R and anti-Ter-119 and then positively selecting Sca-1^+ cells with anti-Sca-1.

Q: How did the “differentiation of full-length Notch1-expressing 32D clones in the presence of G-CSF and peptide” value (“differentiation … of G-CSF and peptide” below) [1] turn out when “CRQGCSPKHGSCKLPGDCRCQYG [peptide SEQ ID NO:10, residues 235 to 257 of hJAGGED1, part of EGF-repeat 1 in the extracellular domain]” was run?
A: comparable to that observed with G-CSF alone; also recorded: unaffected

Q: How did the “differentiation … of G-CSF and peptide” value [1] turn out when “CDDYYYGFGCNKFCRPR (cysteine pairing not given here) [peptide SEQ ID NO:9, 17-mer, residues 188 to 204 of hJAGGED1, portion of the DSL domain]” was run?
A: significantly inhibited

Q: For “KRRKPGSHTHSASEDNTTN [peptide SEQ ID NO:11, residues 1096 to 1114 of hJAGGED1, hydrophilic portion of the intracellular domain]”, which “differentiation … of G-CSF and peptide” value [1] is on record?
A: comparable to that observed with G-CSF alone; also recorded: unaffected

Q: Which results are given for “hJAGGED1 fragment SEQ ID NO:7: soluble fragment of hJAGGED1, residues 1 to 1010 (extracellular domain), tested as supernatant of transfected BHK cells”?
A: Number of CFU-G-CSF, Average ([2]; Sca-1+ lin- cells treated with G-CSF, listed as Supernatant of BHK cells transfected with pDX-hJg1.Ex): 24; Number of CFU-G-CSF, Average ([2]; Sca-1+ lin- cells treated with G-CSF, listed as supernatant from BHK cells transfected with the hJAGGED1 extracellular domain co): about 24; granulocytic differentiation of mouse hematopoietic progenitor cells ([2]; conclusion from Table 2): inhibits granulocytic differentiation; Number of CFU-G-CSF ([2]; individual samples, Sca-1+ lin- cells treated with G-CSF, BHK cell supernatant, listed as Supernatant of BHK cells transfected with pDX-hJg1.Ex): 19 and 34 and 20 and 23
